# Values quoted from earlier work as cited in patent publication US9078464B2 (EDIO HEALTHCARE AB, priority 2008, dated 2015).
# Conditions: in vivo
structure (smiles),measurement,value
CC(C)CCC[C@@H](C)[C@H]1CC[C@H]2[C@@H]3CC=C4C[C@@H](O)CC[C@]4(C)[C@H]3CC[C@]12C [cholesterol],absorption from the intestine,around 60%
